Results reported in US10336762B2 (priority 2017, dated 2019).
Read-outs that look alike come from different tables or passages of the source.

How the values were obtained:
TNFα = assay: cells; format: cell-based, human; conditions: Homo sapiens, Monocyte, LPS-stimulated human monocytes, read-out: EC50 TNF
IRAK4 enzyme = IRAK4 enzyme (Homo sapiens (Human), UniProt Q9NWZ3); assay: biochemical; format: biochemical; conditions: IRAK4 enzyme, 500 μM ATP
Chain of IRAK4 enzyme (Q9NWZ3 whole entry): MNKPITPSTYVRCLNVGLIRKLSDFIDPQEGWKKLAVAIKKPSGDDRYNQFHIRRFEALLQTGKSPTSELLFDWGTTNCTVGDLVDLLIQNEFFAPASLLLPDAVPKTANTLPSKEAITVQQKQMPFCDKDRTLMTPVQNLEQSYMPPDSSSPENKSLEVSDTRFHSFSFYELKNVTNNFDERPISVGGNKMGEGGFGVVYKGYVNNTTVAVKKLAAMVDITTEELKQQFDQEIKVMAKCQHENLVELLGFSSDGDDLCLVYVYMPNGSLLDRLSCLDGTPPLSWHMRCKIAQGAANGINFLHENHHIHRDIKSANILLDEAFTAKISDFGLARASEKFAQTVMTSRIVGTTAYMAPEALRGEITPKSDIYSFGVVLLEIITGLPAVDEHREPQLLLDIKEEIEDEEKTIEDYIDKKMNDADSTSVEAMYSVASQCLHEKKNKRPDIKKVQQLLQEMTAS

Structure (SMILES)	EC50 (TNFα; TNFα content) [nM]	IC50 (IRAK4 enzyme; TR-FRET (HTRF)) [nM]	EC50 (TNFα; TNFα by TR-FRET) [nM]	IC50 (IRAK4 enzyme; TR-FRET) [nM]
Cn1cnc2cc(Nc3cc(-c4ccc5cc(C#N)cnn45)ncc3C(=O)NC[C@@H](F)C(C)(C)O)cnc21 [Example 782, (R)-6-(3-cyanopyrrolo[1,2-b]pyridazin-7-yl)-N-(2-fluoro-3-hydroxy-3-methylbutyl)-4-((3-methyl-3H-imidazo[4,5-b]pyridin-6-yl)amino)nicotinamide]	29	< 1		
CC(C)(O)[C@H](F)CNC(=O)c1cnc(-c2ccc3cc(C#N)cnn23)cc1N[C@H]1C[C@H](Cn2ccnc2)C1 [Example 783, 4-(((1r,3R)-3-((1H-imidazol-1-yl)methyl)cyclo-butyl)amino)-6-(3-cyanopyrrolo[1,2-b]pyridazin-7-yl)-N-((R)-2-fluoro-3-hydroxy-3-methylbutyl)nicotinamide]	22	< 1		
COCc1cncc(Nc2cc(-c3ccc4cc(C#N)cnn34)ncc2C(=O)NC[C@@H](F)C(C)(C)O)c1 [Example 784, (R)-6-(3-cyanopyrrolo[1,2-b]pyridazin-7-yl)-N-(2-fluoro-3-hydroxy-3-methylbutyl)-4-((5-(methoxymethyl)pyridin-3-yl)amino)nicotinamide]	40	< 1		
N#Cc1cnn2c(-c3cc(NC45CCC(O)(CC4)CC5)c(C(=O)NCC(=O)N4CCOCC4)cn3)ccc2c1 [Example 785, 6-(3-cyanopyrrolo[1,2-b]pyridazin-7-yl)-4-((4-hydroxybicyclo[2.2.2]octan-1-yl)amino)-N-(2-morpholino-2-oxoethyl)nicotinamide]	23	< 1		
COCCNC(=O)CNC(=O)c1cnc(-c2ccc3cc(C#N)cnn23)cc1NC12CCC(O)(CC1)CC2 [Example 786, 6-(3-cyanopyrrolo[1,2-b]pyridazin-7-yl)-4-((4-hydroxybicyclo[2.2.2]octan-1-yl)amino)-N-(2-((2-methoxyethyl)amino)-2-oxoethyl)nicotinamide]	323	2		
N#Cc1cnn2c(-c3cc(NC45CCC(O)(CC4)CC5)c(C(=O)NCC(=O)N4CC(F)C4)cn3)ccc2c1 [Example 787, 6-(3-cyanopyrrolo[1,2-b]pyridazin-7-yl)-N-(2-(3-fluoroazetidin-1-yl)-2-oxoethyl)-4-((4-hydroxybicyclo[2.2.2]octan-1-yl)amino) nicotinamide]	79	< 1		
CNC(=O)NC[C@H]1C[C@H](Nc2cc(-c3ccc4cc(C#N)cnn34)ncc2C(=O)NC[C@@H](F)C(C)(C)O)C1 [Example 788, 6-(3-cyanopyrrolo[1,2-b]pyridazin-7-yl)-N-((R)-2-fluoro-3-hydroxy-3-methylbutyl)-4-(((1r,3R)-3-((3-methylureido)methyl)cyclobutyl)amino) nicotinamide]	90	< 1		
CN1CCN(C(=O)CNC(=O)c2cnc(-c3ccc4cc(C#N)cnn34)cc2NC23CCC(O)(CC2)CC3)CC1 [Example 789, 6-(3-cyanopyrrolo[1,2-b]pyridazin-7-yl)-4-((4-hydroxybicyclo[2.2.2]octan-1-yl)amino)-N-(2-(4-methylpiperazin-1-yl)-2-oxoethyl)nicotinamide]	20	< 1		
N#Cc1cnn2c(-c3cc(NC45CCC(O)(CC4)CC5)c(C(=O)NCC(=O)N4CCCC4)cn3)ccc2c1 [Example 790, 6-(3-cyanopyrrolo[1,2-b]pyridazin-7-yl)-4-((4-hydroxybicyclo[2.2.2]octan-1-yl)amino)-N-(2-oxo-2-(pyrrolidin-1-yl)ethyl)nicotinamide]	21	< 1		
COC1CN(C(=O)CNC(=O)c2cnc(-c3ccc4cc(C#N)cnn34)cc2NC23CCC(O)(CC2)CC3)C1 [Example 791, 6-(3-cyanopyrrolo[1,2-b]pyridazin-7-yl)-4-((4-hydroxybicyclo[2.2.2]octan-1-yl)amino)-N-(2-(3-methoxyazetidin-1-yl)-2-oxoethyl)nicotinamide]	45	1		
N#Cc1cnn2c(-c3cc(NC45CCC(O)(CC4)CC5)c(C(=O)NCC(=O)N4CCCCC4)cn3)ccc2c1 [Example 792, 6-(3-cyanopyrrolo[1,2-b]pyridazin-7-yl)-4-((4-hydroxybicyclo[2.2.2]octan-1-yl)amino)-N-(2-oxo-2-(piperidin-1-yl)ethyl)nicotinamide]	86	2		
CN1CCN(C(=O)NC[C@H]2C[C@H](Nc3cc(-c4ccc5cc(C#N)cnn45)ncc3C(=O)NC[C@@H](F)C(C)(C)O)C2)CC1 [Example 793, N-(((1R,3r)-3-((2-(3-cyanopyrrolo[1,2-b]pyridazin-7-yl)-5-(((R)-2-fluoro-3-hydroxy-3-methylbutyl)carbamoyl)pyridin-4-yl)amino)cyclobutyl)methyl)-4-methylpiperazine-1-carboxamide]	598	3		
CN1CCC(C(=O)NC[C@H]2C[C@H](Nc3cc(-c4ccc5cc(C#N)cnn45)ncc3C(=O)NC[C@@H](F)C(C)(C)O)C2)CC1 [Example 794, 6-(3-cyanopyrrolo[1,2-b]pyridazin-7-yl)-N-((R)-2-fluoro-3-hydroxy-3-methylbutyl)-4-(((1r,3R)-3-((1-methylpiperidine-4-carboxamido)methyl)cyclo-butyl)amino)nicotinamide]	997	2		
CN1CC(C(=O)NC[C@H]2C[C@H](Nc3cc(-c4ccc5cc(C#N)cnn45)ncc3C(=O)NC[C@@H](F)C(C)(C)O)C2)C1 [Example 795, 6-(3-cyanopyrrolo[1,2-b]pyridazin-7-yl)-N-((R)-2-fluoro-3-hydroxy-3-methylbutyl)-4-(((1r,3R)-3-((1-methylazetidine-3-carboxamido)methyl)cyclobutyl)amino) nicotinamide]	> 10000	7		
N#Cc1cnn2c(-c3cc(NC45CCC(O)(CC4)CC5)c(C(=O)NCC(=O)N4CCN(C5COC5)CC4)cn3)ccc2c1 [Example 796, 6-(3-cyanopyrrolo[1,2-b]pyridazin-7-yl)-4-((4-hydroxybicyclo[2.2.2]octan-1-yl)amino)-N-(2-(4-(oxetan-3-yl)piperazin-1-yl)-2-oxoethyl)nicotinamide]	75	2		
CC1(F)CN(C(=O)CNC(=O)c2cnc(-c3ccc4cc(C#N)cnn34)cc2NC23CCC(O)(CC2)CC3)C1 [Example 797, 6-(3-cyanopyrrolo[1,2-b]pyridazin-7-yl)-N-(2-(3-fluoro-3-methyl-azetidin-1-yl)-2-oxoethyl)-4-((4-hydroxybicyclo[2.2.2]octan-1-yl)amino) nicotinamide]			38	1
N#Cc1cnn2c(-c3cc(NC45CCC(O)(CC4)CC5)c(C(=O)NCC(=O)N4CCC(F)(F)C4)cn3)ccc2c1 [Example 798, 6-(3-cyanopyrrolo[1,2-b]pyridazin-7-yl)-N-(2-(3,3-difluoropyrrolidin-1-yl)-2-oxoethyl)-4-((4-hydroxybicyclo[2.2.2]octan-1-yl)amino) nicotinamide]			42	1
N#Cc1cnn2c(-c3cc(NC45CCC(O)(CC4)CC5)c(C(=O)NCC(=O)N4CCC5(COC5)C4)cn3)ccc2c1 [Example 799, 6-(3-cyanopyrrolo[1,2-b]pyridazin-7-yl)-4-((4-hydroxybicyclo[2.2.2]octan-1-yl)amino)-N-(2-oxo-2-(2-oxa-6-azaspiro[3.4]octan-6-yl)ethyl)nicotinamide]			62	< 1
N#Cc1cnn2c(-c3cc(NC45CCC(O)(CC4)CC5)c(C(=O)NCC(=O)N4CC5(COC5)C4)cn3)ccc2c1 [Example 800, 6-(3-cyanopyrrolo[1,2-b]pyridazin-7-yl)-4-((4-hydroxybicyclo[2.2.2]octan-1-yl)amino)-N-(2-oxo-2-(2-oxa-6-azaspiro[3.3]heptan-6-yl)ethyl)nicotinamide]			133	3
CCOC(=O)CCNC(=O)c1cnc(-c2ccc3cc(C#N)cnn23)cc1NC12CCC(O)(CC1)CC2 [Example 801, ethyl 3-(6-(3-cyano-pyrrolo[1,2-b]pyridazin-7-yl)-4-((4-hydroxy-bicyclo[2.2.2]octan-1-yl)amino)nicotinamido) propanoate]			57	1
CN1CCN(C(=O)C23CCC(Nc4cc(-c5ccc6cc(C#N)cnn56)ncc4C(=O)NC[C@@H](F)C(C)(C)O)(CC2)CC3)CC1 [Example 802, (R)-6-(3-cyanopyrrolo[1,2-b]pyridazin-7-yl)-N-(2-fluoro-3-hydroxy-3-methylbutyl)-4-((4-(4-methylpiperazine-1-carbonyl)bicyclo[2.2.2]octan-1-yl)amino) nicotinamide]			157	2
CNC(=O)CCNC(=O)c1cnc(-c2ccc3cc(C#N)cnn23)cc1NC12CCC(O)(CC1)CC2 [Example 803, 6-(3-cyanopyrrolo[1,2-b]pyridazin-7-yl)-4-((4-hydroxybicyclo[2.2.2]octan-1-yl)amino)-N-(3-(methylamino)-3-oxopropyl)nicotinamide]			327	1
CN(C)C(=O)CCNC(=O)c1cnc(-c2ccc3cc(C#N)cnn23)cc1NC12CCC(O)(CC1)CC2 [Example 804, 6-(3-cyanopyrrolo[1,2-b]pyridazin-7-yl)-N-(3-(dimethylamino)-3-oxo-propyl)-4-((4-hydroxy-bicyclo[2.2.2]octan-1-yl)amino)nicotinamide]			48	< 1
N#Cc1cnn2c(-c3cc(NC45CCC(O)(CC4)CC5)c(C(=O)NCCC(=O)N4CC(F)(F)C4)cn3)ccc2c1 [Example 805, 6-(3-cyanopyrrolo[1,2-b]pyridazin-7-yl)-N-(3-(3,3-difluoroazetidin-1-yl)-3-oxopropyl)-4-((4-hydroxybicyclo[2.2.2]octan-1-yl)amino) nicotinamide]			129	< 1
CN1CCN(C(=O)CCNC(=O)c2cnc(-c3ccc4cc(C#N)cnn34)cc2NC23CCC(O)(CC2)CC3)CC1 [Example 806, 6-(3-cyanopyrrolo[1,2-b]pyridazin-7-yl)-4-((4-hydroxybicyclo[2.2.2]octan-1-yl)amino)-N-(3-(4-methylpiperazin-1-yl)-3-oxopropyl)nicotinamide]			349	3
